# From patent US20160090556A1, “PRODUCTS COMPRISING MALODOR REDUCTION MATERIALS” (The Procter & Gamble Company, priority 2014, published 2016)
# Experiment: Probability of Ingredient Color Instability
# Format: physicochemical
# Settings: not given
row,Compound,Probability of Ingredient Color Instability (Comment Code E/F)
1,CCCCCCCC(C)=O [Material 840],F (Probability of Ingredient Color Instability<71%)
2,COc1ccc(COC(=O)Cc2ccccc2)cc1 [Material 663],F (Probability of Ingredient Color Instability<71%)
3,CC1=CCCC(C)(C)C12CCC(C)O2 (stereo not shown) [Material 1057],F (Probability of Ingredient Color Instability<71%)
4,COC(=O)c1ccccc1NC(O)CC(C)c1ccccc1 (stereo not shown) [Material 1093],F (Probability of Ingredient Color Instability<71%)
5,CC1=CCC(C23CCCC(C)(C2)OC3)C1(C)C (stereo not shown) [Material 571],F (Probability of Ingredient Color Instability<71%)
6,CCCCCC=C1CCCC1=O [Material 850],F (Probability of Ingredient Color Instability<71%)
7,CCC(=O)OCC(=O)OC(C)C1CCCC(C)(C)C1 (stereo not shown) [Material 1009],F (Probability of Ingredient Color Instability<71%)
8,CCCCCC1C(=O)CCC1C (stereo not shown) [Material 1053],F (Probability of Ingredient Color Instability<71%)
9,CC1(C)C2CC=C(CC=O)C1C2 (stereo not shown) [Material 973],F (Probability of Ingredient Color Instability<71%)
10,Cc1ccc(OC(=O)Cc2ccccc2)cc1 [Material 998],F (Probability of Ingredient Color Instability<71%)
11,CCC(C)CCCC(C)C=O (stereo not shown) [Material 866],F (Probability of Ingredient Color Instability<71%)

# Same assay, conditions: class code letter within Comment Code
row,Compound,Probability of Ingredient Color Instability (Comment Code E/F)
1,CC(C)=CCCC(C)=CCOC(=O)Cc1ccccc1 [Material 300],F (Probability of Ingredient Color Instability<71%)
2,CC1(C)C2CC=C(C=O)C1C2 (stereo not shown) [Material 70],F (Probability of Ingredient Color Instability<71%)
3,CCCCCCCC1CCCC1=O (stereo not shown) [Material 362],F (Probability of Ingredient Color Instability<71%)
4,CC1=CC(C)C(C=O)C(C)C1 (stereo not shown) [Material 218],F (Probability of Ingredient Color Instability<71%)
5,C=CC(C)(O)CCC=C(C)CCC=C(C)CCC=C(C)C (stereo not shown) [Material 303],F (Probability of Ingredient Color Instability<71%)
6,CCCCCCC1CCCC1=O (stereo not shown) [Material 189],F (Probability of Ingredient Color Instability<71%)
7,C/C=C/CCC1CCCC(=O)O1 (stereo not shown) [Material 187],F (Probability of Ingredient Color Instability<71%)
8,COc1c2ccoc2c(OC)c2oc(=O)ccc12 [Material 199],F (Probability of Ingredient Color Instability<71%)
9,CCCCCCC1=CCCC1=O [Material 209],F (Probability of Ingredient Color Instability<71%)
10,O=C1CCCCCCCCCCCC(=O)OCCO1 [Material 378],F (Probability of Ingredient Color Instability<71%)
11,CCCCCCCCCC(C)=O [Material 102],F (Probability of Ingredient Color Instability<71%)
12,C=CC(C)(CCC=C(C)C)OC(=O)c1ccccc1 (stereo not shown) [Material 152],F (Probability of Ingredient Color Instability<71%)
13,O=C(OC1CCCCC1)c1ccccc1O [Material 482],F (Probability of Ingredient Color Instability<71%)
14,CC1COC(C)(c2ccc3c(c2)C(C)(C)CCC3(C)C)O1 (stereo not shown) [Material 2],F (Probability of Ingredient Color Instability<71%)
15,CCCCCCCCC(C)C=O (stereo not shown) [Material 92],F (Probability of Ingredient Color Instability<71%)
16,CC=Cc1ccc(OCc2ccccc2)c(OC)c1 [Material 212],F (Probability of Ingredient Color Instability<71%)
17,CCC(C)(C)C1CCC(=O)CC1 [Material 21],F (Probability of Ingredient Color Instability<71%)
18,O=C1CCCCCCCCCCC(=O)OCCO1 [Material 485],F (Probability of Ingredient Color Instability<71%)
19,O=CC1CCC2C3CCC(C3)C12 (stereo not shown) [Material 130],F (Probability of Ingredient Color Instability<71%)

# Same assay, conditions: codes E/F of the Comment Code, Table 1
row,Compound,Comment Code: Probability of Ingredient Color Instability
1,COC(=O)c1ccccc1N=CC(C)Cc1ccc(C(C)(C)C)cc1 (stereo not shown) [Material 1121],F (Probability of Ingredient Color Instability<71%)

# Experiment: Liquid dish neat product liquid-air partition coefficient
# Format: physicochemical
# Settings: not given
row,Compound,Log of liquid dish neat product liquid-air partition coefficient (Comment Code K/L)
1,C=CCc1ccc2c(c1)OCO2 [Material 1021],K (Log of liquid dish neat product liquid-air partition coefficient greater than or equal to −7)
2,CC(=CCCC1(C)C2CC3C(C2)C31C)CO (stereo not shown) [Material 694],K (Log of liquid dish neat product liquid-air partition coefficient greater than or equal to −7)
3,CC12CCCC(O)(C1)C1CC(C)(C)C1CC2 (stereo not shown) [Material 574],K (Log of liquid dish neat product liquid-air partition coefficient greater than or equal to −7)
4,OCCc1ccccc1 [Material 955],K (Log of liquid dish neat product liquid-air partition coefficient greater than or equal to −7)

# Same assay, conditions: class code letter within Comment Code
row,Compound,Log of liquid dish neat product liquid-air partition coefficient (Comment Code K/L)
1,c1ccc(Cc2ccccc2)cc1 [Material 429],K (Log of liquid dish neat product liquid-air partition coefficient greater than or equal to −7)
2,c1ccc2occc2c1 [Material 493],K (Log of liquid dish neat product liquid-air partition coefficient greater than or equal to −7)
3,CC(C)C1CCC(C(C)O)CC1 (stereo not shown) [Material 83],K (Log of liquid dish neat product liquid-air partition coefficient greater than or equal to −7)
4,CCCCCCCCCCCC(=O)OC(C)C [Material 197],K (Log of liquid dish neat product liquid-air partition coefficient greater than or equal to −7)
5,C=CC(=C)CCCC(C)(C)O [Material 34],K (Log of liquid dish neat product liquid-air partition coefficient greater than or equal to −7)

# Same assay, conditions: code letters K, L
row,Compound,Comment Code: Log of liquid dish neat product liquid-air partition coefficient
1,CCCOC(=O)[C@H](C)OC(C)(C)CC [Material 1030],K (Log of liquid dish neat product liquid-air partition coefficient greater than or equal to −7)
2,CC(=CCCC1(C)C2CC3C(C2)C31C)CO (stereo not shown) [Material 694],K (Log of liquid dish neat product liquid-air partition coefficient greater than or equal to −7)
3,CCC(=O)OCCc1ccccc1 [Material 835],K (Log of liquid dish neat product liquid-air partition coefficient greater than or equal to −7)
4,C/C=C\c1ccc(O)c(OC)c1 [Material 528],K (Log of liquid dish neat product liquid-air partition coefficient greater than or equal to −7)
5,CC12CCCC(O)(C1)C1CC(C)(C)C1CC2 (stereo not shown) [Material 574],K (Log of liquid dish neat product liquid-air partition coefficient greater than or equal to −7)
6,CC(O)CCC1C(C)CCCC1(C)C (stereo not shown) [Material 1052],K (Log of liquid dish neat product liquid-air partition coefficient greater than or equal to −7)
